Results taken from patent publication US20060142308A1, “Synergistic combination comprising roflumilast and formoterol” (Atlanta Pharma AG, priority 2002, published 2006).

System: ovalbumin (OVA)-sensitized and OVA-challenged Brown Norway rats
Assay: Late inflammatory airway reaction in the ovalbumin-sensitized/-challenged Brown-Norway rat (BAL fluid eosinophils, total cells, protein)
Type: in vivo
Conditions: for Mean % Inhibition of Eosinophils: BAL fluid 48 h after OVA challenge; for Mean % Inhibition of Eosinophils / Mean % Inhibition of Protein: drug 1 h before challenge, p.o., Roflumilast 1.0, Formoterol 3.0, combination 1.0 + 3.0 μmol/kg; for Mean % Inhibition of Protein: cell-free BAL fluid 48 h after OVA challenge
Description: Late Inflammatory Airway Reaction in the Ovalbumin-Sensitized/-Challenged Brown-Norway Rat
Anti-inflammatory activity of Roflumilast and formoterol was determined in ovalbumin (OVA)-sensitized and OVA-challenged Brown Norway rats. Sensitization was done by simultaneous injection of Bordetella pertussis suspension i.p. and OVA/AHG suspension s.c. on day 1, 14 and 21. 28 days after start of sensitization, conscious Brown-Norway rats were challenged by inhalation of the aerosolized OVA solution for 1 h (˜20 ml/h). Non-challenged, only sensitized animals were used as baseline control. The drugs (thoroughly mixed with lactose) or the placebo control (lactose) were administered intratracheally (i.t.) as dry powders 1 h before OVA-challenge. 48 h later, OVA-challenged or non-challenged animals were anaesthetized and bronchoalveolar lavage (BAL) was performed using 3×4 ml BAL buffer per animal. The number of total cells and eosinophils in the BAL fluid, and the concentration of protein in the cell-free BAL fluid were determined. Drug-induced relative changes were calculated and statistically analyzed by the Jonckheere Terpstra test.

| Compound | effects on total cell and eosinophil influx into alveolar space and protein levels in BAL fluid (3 μmol/kg i.t., data failed to reach significance) | Mean % Inhibition of Eosinophils | Mean % Inhibition of Protein | effects on cell infiltration and protein accumulation (0.3 μmol/kg i.t.) |
| --- | --- | --- | --- | --- |
| COc1ccc(CC(C)NCC(O)c2ccc(O)c(NC=O)c2)cc1 (stereo not drawn) [Formoterol] | exhibited inhibitory effects | 35% | 46% | – |
| O=C(Nc1c(Cl)cncc1Cl)c1ccc(OC(F)F)c(OCC2CC2)c1 [Roflumilast] | – | 0% | 15% | did not show any significant effects |
